ChEMBL document CHEMBL5724914, “Linking interpersonal differences in gut microbiota composition and drug biotransformation activity” (2024)

Assays:
[1] = The drug is tested on Z-004 corresponding to metagenome with ENA study accession number: PRJEB37062 and ENA sample accession number: ERS12561804 for biotransformation under anaerobic condition. The drug concentrations were measured over 9 timepoints collected between 0 and 24 hours of incubation by liquid-chromatography-coupled mass spectrometry (LC–MS); conditions: 2 µM
[2] = human gut metagenome, 24 h, 2 µM
[3] = The drug is tested on Z-030 corresponding to mouse gut metagenome with ENA study accession number: PRJEB37062 and ENA sample accession number: ERS12561829 for biotransformation under anaerobic condition. The drug concentrations were measured over 9 timepoints collected between 0 and 24 hours of incubation by liquid-chromatography-coupled mass spectrometry (LC–MS); conditions: 2 µM
[4] = The drug is tested on Z-017 corresponding to mouse gut metagenome with ENA study accession number: PRJEB37062 and ENA sample accession number: ERS12561816 for biotransformation under anaerobic condition. The drug concentrations were measured over 9 timepoints collected between 0 and 24 hours of incubation by liquid-chromatography-coupled mass spectrometry (LC–MS); conditions: 2 µM
[5] = The drug is tested on Z-005 corresponding to metagenome with ENA study accession number: PRJEB37062 and ENA sample accession number: ERS12561805 for biotransformation under anaerobic condition. The drug concentrations were measured over 9 timepoints collected between 0 and 24 hours of incubation by liquid-chromatography-coupled mass spectrometry (LC–MS); conditions: 2 µM
[6] = The drug is tested on WLS-039 corresponding to human gut metagenome with ENA study accession number: PRJEB37062 and ENA sample accession number: ERS12561746 for biotransformation under anaerobic condition. The drug concentrations were measured over 9 timepoints collected between 0 and 24 hours of incubation by liquid-chromatography-coupled mass spectrometry (LC–MS); conditions: 2 µM
[7] = The drug is tested on WLS-006 corresponding to human gut metagenome with ENA study accession number: PRJEB37062 and ENA sample accession number: ERS12561741 for biotransformation under anaerobic condition. The drug concentrations were measured over 9 timepoints collected between 0 and 24 hours of incubation by liquid-chromatography-coupled mass spectrometry (LC–MS); conditions: 2 µM
[8] = human gut metagenome, 24 h, 2 µM; remark: listed apart in the source
[9] = human gut metagenome, 24 h, 2 µM; remark: listed apart in the source
[10] = The drug is tested on Z-028 corresponding to mouse gut metagenome with ENA study accession number: PRJEB37062 and ENA sample accession number: ERS12561827 for biotransformation under anaerobic condition. The drug concentrations were measured over 9 timepoints collected between 0 and 24 hours of incubation by liquid-chromatography-coupled mass spectrometry (LC–MS); conditions: 2 µM
[11] = human gut metagenome, 24 h, 2 µM; remark: listed apart in the source
[12] = The drug is tested on WLS-240 corresponding to human gut metagenome with ENA study accession number: PRJEB37062 and ENA sample accession number: ERS12561773 for biotransformation under anaerobic condition. The drug concentrations were measured over 9 timepoints collected between 0 and 24 hours of incubation by liquid-chromatography-coupled mass spectrometry (LC–MS); conditions: 2 µM
[13] = human gut metagenome, 24 h, 2 µM; remark: listed apart in the source
[14] = human gut metagenome, 24 h, 2 µM; remark: listed apart in the source
[15] = The drug is tested on Z-026 corresponding to metagenome with ENA study accession number: PRJEB37062 and ENA sample accession number: ERS12561825 for biotransformation under anaerobic condition. The drug concentrations were measured over 9 timepoints collected between 0 and 24 hours of incubation by liquid-chromatography-coupled mass spectrometry (LC–MS); conditions: 2 µM
[16] = The drug is tested on Z-007 corresponding to rat gut metagenome with ENA study accession number: PRJEB37062 and ENA sample accession number: ERS12561807 for biotransformation under anaerobic condition. The drug concentrations were measured over 9 timepoints collected between 0 and 24 hours of incubation by liquid-chromatography-coupled mass spectrometry (LC–MS); conditions: 2 µM
[17] = human gut metagenome, 24 h, 2 µM; remark: listed apart in the source
[18] = The drug is tested on Z-009 corresponding to pig gut metagenome with ENA study accession number: PRJEB37062 and ENA sample accession number: ERS12561809 for biotransformation under anaerobic condition. The drug concentrations were measured over 9 timepoints collected between 0 and 24 hours of incubation by liquid-chromatography-coupled mass spectrometry (LC–MS); conditions: 2 µM
[19] = human gut metagenome, 24 h, 2 µM; remark: listed apart in the source
[20] = human gut metagenome, 24 h, 2 µM; remark: listed apart in the source
Further: call rule not given here.

Structure (SMILES): C=C[C@H]1CN2CC[C@H]1C[C@H]2[C@H](O)c1ccnc2ccc(OC)cc12.C=C[C@H]1CN2CC[C@H]1C[C@H]2[C@H](O)c1ccnc2ccc(OC)cc12.O.O.O=S(=O)(O)O [QUININE SULFATE]
- Bacterial Biotransformation [1]: Compound NOT metabolized
- Bacterial Biotransformation [2]: Compound NOT metabolized
- Bacterial Biotransformation [3]: Compound NOT metabolized
- Bacterial Biotransformation [4]: Compound NOT metabolized
- Bacterial Biotransformation [5]: Compound NOT metabolized
- Bacterial Biotransformation [6]: Compound NOT metabolized
- Bacterial Biotransformation [7]: Compound metabolized
- Bacterial Biotransformation [8]: Compound NOT metabolized
- Bacterial Biotransformation [9]: Compound metabolized
- Bacterial Biotransformation [10]: Compound NOT metabolized
- Bacterial Biotransformation [11]: Compound NOT metabolized
- Bacterial Biotransformation [12]: Compound metabolized
- Bacterial Biotransformation [13]: Compound NOT metabolized
- Bacterial Biotransformation [14]: Compound NOT metabolized
- Bacterial Biotransformation [15]: Compound NOT metabolized
- Bacterial Biotransformation [16]: Compound NOT metabolized
- Bacterial Biotransformation [17]: Compound metabolized
- Bacterial Biotransformation [18]: Compound NOT metabolized
- Bacterial Biotransformation [19]: Compound metabolized
- Bacterial Biotransformation [20]: Compound NOT metabolized

Structure (SMILES): CC(C)(C)NCC(O)COc1cccc2c1CC(O)C(O)C2 (stereo not given) [NADOLOL]
- Bacterial Biotransformation [1]: Compound NOT metabolized
- Bacterial Biotransformation [2]: Compound NOT metabolized
- Bacterial Biotransformation [3]: Compound NOT metabolized
- Bacterial Biotransformation [4]: Compound NOT metabolized
- Bacterial Biotransformation [5]: Compound NOT metabolized
- Bacterial Biotransformation [6]: Compound NOT metabolized
- Bacterial Biotransformation [7]: Compound NOT metabolized
- Bacterial Biotransformation [8]: Compound metabolized
- Bacterial Biotransformation [9]: Compound NOT metabolized
- Bacterial Biotransformation [10]: Compound NOT metabolized
- Bacterial Biotransformation [11]: Compound NOT metabolized
- Bacterial Biotransformation [12]: Compound metabolized
- Bacterial Biotransformation [13]: Compound metabolized
- Bacterial Biotransformation [14]: Compound NOT metabolized
- Bacterial Biotransformation [15]: Compound NOT metabolized
- Bacterial Biotransformation [16]: Compound NOT metabolized
- Bacterial Biotransformation [17]: Compound metabolized
- Bacterial Biotransformation [18]: Compound metabolized
- Bacterial Biotransformation [19]: Compound metabolized
- Bacterial Biotransformation [20]: Compound NOT metabolized

Structure (SMILES): CC(CCc1ccccc1)NCC(O)c1ccc(O)c(C(N)=O)c1 (stereo not given) [LABETALOL]
- Bacterial Biotransformation [1]: Compound NOT metabolized
- Bacterial Biotransformation [2]: Compound NOT metabolized
- Bacterial Biotransformation [3]: Compound NOT metabolized
- Bacterial Biotransformation [4]: Compound NOT metabolized
- Bacterial Biotransformation [5]: Compound NOT metabolized
- Bacterial Biotransformation [6]: Compound NOT metabolized
- Bacterial Biotransformation [7]: Compound NOT metabolized
- Bacterial Biotransformation [8]: Compound NOT metabolized
- Bacterial Biotransformation [9]: Compound NOT metabolized
- Bacterial Biotransformation [10]: Compound NOT metabolized
- Bacterial Biotransformation [11]: Compound NOT metabolized
- Bacterial Biotransformation [12]: Compound metabolized
- Bacterial Biotransformation [13]: Compound NOT metabolized
- Bacterial Biotransformation [14]: Compound NOT metabolized
- Bacterial Biotransformation [15]: Compound NOT metabolized
- Bacterial Biotransformation [16]: Compound NOT metabolized
- Bacterial Biotransformation [17]: Compound NOT metabolized
- Bacterial Biotransformation [18]: Compound NOT metabolized
- Bacterial Biotransformation [19]: Compound NOT metabolized
- Bacterial Biotransformation [20]: Compound NOT metabolized

Structure (SMILES): Br.CN1CCC[C@@H]1Cc1c[nH]c2ccc(CCS(=O)(=O)c3ccccc3)cc12 [ELETRIPTAN HYDROBROMIDE]
- Bacterial Biotransformation [1]: Compound NOT metabolized
- Bacterial Biotransformation [2]: Compound NOT metabolized
- Bacterial Biotransformation [3]: Compound NOT metabolized
- Bacterial Biotransformation [4]: Compound NOT metabolized
- Bacterial Biotransformation [5]: Compound NOT metabolized
- Bacterial Biotransformation [6]: Compound NOT metabolized
- Bacterial Biotransformation [7]: Compound NOT metabolized
- Bacterial Biotransformation [8]: Compound metabolized
- Bacterial Biotransformation [9]: Compound NOT metabolized
- Bacterial Biotransformation [10]: Compound NOT metabolized
- Bacterial Biotransformation [11]: Compound NOT metabolized
- Bacterial Biotransformation [12]: Compound metabolized
- Bacterial Biotransformation [13]: Compound metabolized
- Bacterial Biotransformation [14]: Compound NOT metabolized
- Bacterial Biotransformation [15]: Compound NOT metabolized
- Bacterial Biotransformation [16]: Compound NOT metabolized
- Bacterial Biotransformation [17]: Compound metabolized
- Bacterial Biotransformation [18]: Compound NOT metabolized
- Bacterial Biotransformation [19]: Compound NOT metabolized
- Bacterial Biotransformation [20]: Compound NOT metabolized

Structure (SMILES): CC(=O)CCCCn1c(=O)c2c(ncn2C)n(C)c1=O [PENTOXIFYLLINE]
- Bacterial Biotransformation [1]: Compound NOT metabolized
- Bacterial Biotransformation [2]: Compound NOT metabolized
- Bacterial Biotransformation [3]: Compound NOT metabolized
- Bacterial Biotransformation [4]: Compound NOT metabolized
- Bacterial Biotransformation [5]: Compound NOT metabolized
- Bacterial Biotransformation [6]: Compound NOT metabolized
- Bacterial Biotransformation [7]: Compound NOT metabolized
- Bacterial Biotransformation [8]: Compound metabolized
- Bacterial Biotransformation [9]: Compound NOT metabolized
- Bacterial Biotransformation [10]: Compound NOT metabolized
- Bacterial Biotransformation [11]: Compound NOT metabolized
- Bacterial Biotransformation [12]: Compound metabolized
- Bacterial Biotransformation [13]: Compound NOT metabolized
- Bacterial Biotransformation [14]: Compound NOT metabolized
- Bacterial Biotransformation [15]: Compound NOT metabolized
- Bacterial Biotransformation [16]: Compound NOT metabolized
- Bacterial Biotransformation [17]: Compound metabolized
- Bacterial Biotransformation [18]: Compound NOT metabolized
- Bacterial Biotransformation [19]: Compound NOT metabolized
- Bacterial Biotransformation [20]: Compound NOT metabolized
